Measured values taken from patent US9145389B2, “Benzimidazole compound crystal” (Takeda Pharmaceutical Company Limited, priority 1999, dated 2015).

Key:
[1] = Stability during storage at 60° C. (stopper removed), content by HPLC; type: physicochemical; conditions: for Description: appearance after storage at 60° C. (exposed)
Procedure: The crystals of R(+)-lansoprazole as obtained in Example 2 (about 5 mg) and amorphous R(+)-lansoprazole as obtained in Reference Example 1 (about 5 mg) were each taken in a colorless glass bottle, and their stability during storage at 60° C. (stopper removed) was examined. A 25 ml solution (concentration: about 0.2 mg/ml) of the sample after completion of storage in the mobile phase, along with a standard solution prepared using the initial lot, was analyzed under the HPLC conditions shown below, and the R(+)-lansoprazole content (residual percentage) was calculated from the peak area obtained.

[2] = tested on: Gastric Mucosal Injury Due to Stress of Water Immersion Restraint in Rat; experiment: Suppressive action on gastric mucosal injury due to stress of water immersion restraint in rat; type: in vivo; conditions: male SD rats, 3 mg/kg orally 30 minutes before stressing
Procedure: Suppressive Action on Gastric Mucosal Injury Due to Stress of Water Immersion Restraint in Rat
Male SD rats (7 weeks of age, weighing 230 to 250 g) were fasted for 24 hours, after which they were stressed by being housed in restraint cages and immersed to below the xiphoid process in a standing position in a 23° C. constant-temperature water chamber. After 5 hours, the rats were removed from the cages and sacrificed using gaseous carbon dioxide, and their stomachs excised. After the lower portion of the esophagus was clipped, a 1% formalin solution (10 ml) was injected into the stomach via the duodenum, which was then occluded, and the stomach was immersed in the same solution. After 10 minutes, an incision was made along the greater curvature, and the length (mm) of each mucosal injury was measured under a stereomicroscope. The overall sum of the injury lengths in each stomach was taken as the gastric mucosal injury index.
The crystals of (R)-2-[[[3-methyl-4-(2,2,2-trifluoroethoxy)-2-pyridinyl]methyl]sulfinyl]-1H-benzimidazole (R(+)-lansoprazole) as obtained in Example 2 were suspended in 0.5% methyl cellulose (pH 9.5) containing 0.05 M NaHCO3 and orally administered at 30 minutes before stressing (dosing volume 2 ml/kg). Each treatment group comprised 9 animals. The control group (solvent administration group) and the drug administration group were compared by Steel's test.

Row | Description ([1]; 1 week, listed as Amorphous) | Description ([1]; 2 weeks, listed as Amorphous) | Content (Residual percentage) ([1]; storage at 60° C. (exposed), 1 week) [%] | Content (Residual percentage) ([1]; storage at 60° C. (exposed), 1 week, listed as Amorphous) [%] | Content (Residual percentage) ([1]; storage at 60° C. (exposed), 2 weeks) [%] | Content (Residual percentage) ([1]; storage at 60° C. (exposed), 2 weeks, listed as Amorphous) [%] | Description ([1]; 1 week, listed as Crystal) | Description ([1]; 2 weeks, listed as Crystal) | Description ([1]; 4 weeks) | Content (Residual percentage) ([1]; storage at 60° C. (exposed), 1 week, listed as Crystal) [%] | Content (Residual percentage) ([1]; storage at 60° C. (exposed), 2 weeks, listed as Crystal) [%] | Content (Residual percentage) ([1]; storage at 60° C. (exposed), 4 weeks) [%] | Content retained ([1]; storage at 60° C. (exposed), for up to 4 weeks) | SMILES | Gastric mucosal injury index ([2]; 5 hours water immersion restraint, mean ± standard error, 9 animals) [mm] | Suppression rate ([2]; versus control group) [%]
1 | Brown | Blackish brown | 70.8 | 70.8 | 57.5 | 57.5 |  |  |  |  |  |  |  | Cc1c(OCC(F)(F)F)ccnc1C[S@@+]([O-])c1nc2ccccc2[nH]1 [Reference Example 1, (R)-2-[[[3-methyl-4-(2,2,2-trifluoroethoxy)-2-pyridinyl]methyl]sulfinyl]-1H-benzimidazole, reference compound] |  | 
2 |  |  |  |  |  |  | Light-brown | Brown | Brown | 97.0 | 93.8 | 91.7 | exceeding 90% | Cc1c(OCC(F)(F)F)ccnc1C[S@@+]([O-])c1nc2ccccc2[nH]1 [Example 2, (R)-2-[[[3-methyl-4-(2,2,2-trifluoroethoxy)-2-pyridinyl]methyl]sulfinyl]-1H-benzimidazole] | 0.2 ± 0.2 | 98.0
